How the values were obtained:
A549 cells = assay: Radiation clonogenic survival assay; type: cell-based, human; conditions: A549 and H1299
Experimental: In vitro transfection studies for all cell lines were performed by plating 2×10^5 cells in T25 flasks. Forty-eight hours after plating, cells were incubated for 1 hour with purified vector in 1 ml of medium without serum. After 1 hour, fresh medium supplemented with 10% FBS was added to the flask. Serum-free medium was used for mock transfection.
The effectiveness of treatments was assessed by clonogenic assays. Briefly, monolayers of A549, H1299, CCD-16, and MRC-9 cells were treated in T25 flasks as described above, and after various doses of irradiation the cells were trypsinized and counted. Known numbers of cells were then replated in 100 mm culture dishes and returned to the incubator to allow macroscopic colony development.

HUVECs = assay: Clonogenic survival of endothelial cells after irradiation; type: cell-based, human; conditions: MDA-7 protein 10 ng/ml; angiostatin, endostatin 100 ng/ml; 12 h before irradiation
Experimental: Twelve hours after seeding HUVECs in 4-well plates (Nunc, Roskilde, Denmark), medium was replaced with serum/growth factor-free medium. After serum/growth factor starvation for 12 hours, cells were treated with complete medium containing either MDA-7 protein (10 ng/ml) (removed from cultures of 293 cells), angiostatin (100 ng/ml), or endostatin (100 ng/ml). Twelve hours later, cells were irradiated with ^137CS unit (3.4 Gy/min) at room temperature, trypsinized and counted. Known numbers of cells were replated in 60 mm culture dishes and incubated to allow macroscopic colony development. Colonies were counted after 14 days, and the percent plating efficiency and surviving fractions following given treatments were calculated based on the survival of non-irradiated cells.

HUVEC = assay: Endothelial cell differentiation (tube formation) assay on Matrigel; type: cell-based, human; conditions: for concentration required to significantly inhibit HUVEC tube formation: equimolar comparison; for tube formation in the presence of IL-22R1 antibody: high concentrations, vs PBS
Experimental: Endothelial cell differentiation (tube formation) assays were done using the in vitro angiogenesis assay kit (Chemicon, Temecula, Calif.). Briefly, HUVEC and HMVEC were grown to 80% confluency, collected, resuspended in growth medium, and plated at a concentration of 2−10^4 cells/well in a 96-well plate coated with Matrigel (Chemicon, Temecula, Calif.). Cells were treated with sMDA-7 protein (1, 5, 10, and 50 ng/ml), or a preparation immunodepleted of sMDA protein for 24 h at 37° C. Cells treated with PBS served as negative controls in these experiments. The ability of sMDA-7 to inhibit tube formation was determined and quantitated by counting the number of tubes under bright-field microscopy.
For experiments involving comparative studies, cells were treated with equimolar concentrations of sMDA-7 (5, 10, and 300 ng/ml), recombinant human endostatin (5.2, 10.4, and 315 ng/ml; Calbiochem, La Jolla, Calif.), recombinant IFN-γ (4.5, 9, and 268 ng/ml; R&D systems, Minneapolis, Minn.) or recombinant IP-10 (2.4, 4.5, and 134 ng/ml; R&D systems, Minneapolis, Minn.) and analyzed for tube formation assay as described above. All samples were tested in duplicate. Experiments were repeated at least 5-6 times.
For receptor blocking studies, HUVEC grown in six-well plates were pretreated with IL-22R1 blocking antibody (1 ng/ml and 5 ng/ml). Following overnight incubation, cells were harvested, washed, and plated in Matrigel coated 96-well plates. Fresh IL-22R1 blocking antibody and sMDA-7 was added to the wells in a 1:1 ratio (1 ng/ml of IL-22R1 antibody:1 ng/ml of sMDA-7) or 1:5 ratio (1 ng/ml of IL-22R1 antibody:5 ng/ml of sMDA-7) and incubated at 37° C. After overnight incubation, the plates were examined for tube formation. All other experimental procedures were the same as described above. […] The relative amount of IL-22R1 used for experiments involving endostatin was 315 ng/ml (1:1 ratio) and 134 ng/ml for experiments involving IP-10 (1:1 ratio). All other experimental procedures were the same as described previously. For blocking studies using anti-IP-10 or anti-IFN-γ neutralizing antibodies (R & D Systems), experiments were conducted as described above for receptor studies except that HUVEC were treated with the appropriate neutralizing antibody (1 μg and 5 μg/ml) prior to treatment with sMDA-7 (300 ng/ml).

MDA-7 expression in PBMC = MDA-7 expression in PBMC (real time RT-PCR, intracellular FACS); type: cell-based, human; conditions: 100 U/ml; 6 hr; resting PBMC
Experimental: Cells were isolated at the designated times and protein levels measured and RNA isolated. Real time RT-PCR was performed using TaqMan OneStep procedure according to the manufacturers protocol (Applied Biosystems, Foster City Calif.). Gene specific primer/probes for MDA-7 and HPRT were purchased from Applied Biosystems. The reactions were carried out according to manufacturer's protocol using an ABI Prism 7900 HT sequence detection system and the analysis was conducted using Sequence Detection Software version 2.9. MDA-7 protein was detected by intracellular FACs analysis. Cells were treated with Brefeldin A at 10 μg/ml 4 hr prior to harvest to prohibit secretion of the cytokine. Where applicable cells were first surface stained using directly conjugated antibodies and then, to detect intracellular proteins, cells were fixed by treatment with 4% paraformaldehyde and then permeabilized with detergent, n-octyl glucopyranoside at 7 mg/ml. As the control for permeabilization, cells were also stained with a monoclonal antibody directed against the intracellular protein vimentin. Standard protocols were followed for immunofluorescence staining. Immunofluorescence was analyzed on a FACSCalibur with Cell Quest software (BD Immunosciences).
To determine what cytokines may be driving this expression, PBMC were stimulated with IL-2, a major cytokine produced during PHA activation. […]

IL-22R1 on HUVEC = target: T1, IL-22R1 on HUVEC (human, UniProt Q8N6P7 16-574); assay: cell-based or functional assay
T1 sequence (looked up): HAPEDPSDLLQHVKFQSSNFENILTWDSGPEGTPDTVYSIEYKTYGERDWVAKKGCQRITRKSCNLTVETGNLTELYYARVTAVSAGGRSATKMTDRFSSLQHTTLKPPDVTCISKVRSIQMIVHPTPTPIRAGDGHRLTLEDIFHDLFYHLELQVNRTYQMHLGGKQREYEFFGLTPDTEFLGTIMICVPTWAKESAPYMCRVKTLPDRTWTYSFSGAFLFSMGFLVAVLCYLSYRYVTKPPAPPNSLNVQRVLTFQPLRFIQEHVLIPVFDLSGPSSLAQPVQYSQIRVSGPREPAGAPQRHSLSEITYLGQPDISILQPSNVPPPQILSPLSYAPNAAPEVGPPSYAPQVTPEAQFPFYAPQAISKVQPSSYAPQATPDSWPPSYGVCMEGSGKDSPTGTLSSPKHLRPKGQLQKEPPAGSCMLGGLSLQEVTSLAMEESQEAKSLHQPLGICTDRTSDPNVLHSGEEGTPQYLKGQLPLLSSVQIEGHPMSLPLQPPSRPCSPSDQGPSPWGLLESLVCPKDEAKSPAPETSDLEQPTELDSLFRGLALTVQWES

COC(=O)Nc1nc2ccc(C(=O)c3cccs3)cc2[nH]1 [Nocodazole]
radiosensitivity after G2/M arrest (A549 cells; 200 ng/ml): does not enhance the radiosensitivity

angiostatin
radiosensitization of HUVECs (HUVECs): produced radiosensitizing effects

IFN-γ: recombinant IFN-γ (R&D systems)
concentration required to significantly inhibit HUVEC tube formation (HUVEC): 268 ng/mL

IP-10: recombinant IP-10 (R&D systems)
concentration required to significantly inhibit HUVEC tube formation (HUVEC): 134 ng/mL | tube formation in the presence of IL-22R1 antibody (HUVEC): significantly inhibited

endostatin
radiosensitization of HUVECs (HUVECs): produced radiosensitizing effects | inhibition of tube formation over control (HUVEC; 315 ng/ml): 40-50% | concentration required to significantly inhibit HUVEC tube formation (HUVEC): 300 ng/mL | tube formation in the presence of IL-22R1 antibody (HUVEC): significantly inhibited

COc1cc(/C=C/C(=O)CC(=O)/C=C/c2ccc(O)c(OC)c2)ccc1O [curcumin, Curcumin]
Ad-mda7 radiosensitization (A549 cells; 10 μM): abrogated

IL-15: cytokine
expression of MDA-7 mRNA and protein (MDA-7 expression in PBMC): stimulated

B1: secreted MDA-7 protein (soluble, glycosylated, produced by stably transfected 293 cells) (ligand)
chain: AQGQEFHFGPCQVKGVVPQKLWEAFWAVKDTMQAQDNITSARLLQQEVLQNVSDAESCYLVHTLLEFYLKTVFKNYHNRTVEVRTLKSFSTLANNFVLIVSQLQPSQENEMFSIRDSAHRRFLLFRRAFKQLDVEAALTKALGEVDILLTWMQKFYKL
modifications: glycosylated (sites not given)
HUVEC tube formation with sMDA-7 (5 ng/ml), restoration by 1 ng/ml IL-22R1 blocking antibody (1:5 ratio) (IL-22R1 on HUVEC): < 60% | HUVEC tube formation with sMDA-7 (5 ng/ml), restoration by 5 ng/ml IL-22R1 blocking antibody (1:1 ratio) (IL-22R1 on HUVEC): > 90%

B2: IL-7: cytokine (protein, UniProt P13232 26-177, looked up)
Interleukin-7: DCDIEGKDGKQYESVLMVSIDQLLDSMKEIGSNCLNNEFNFFKRHICDANKEGMFLFRAARKLRQFLKMNSTGDFDLHLLKVSEGTTILLNCTGQVKGRKPAALGEAQPTKSLEENKSLKEQKKLNDLCFLKRLLQEIKTCWNKILMGTKEH
expression of MDA-7 mRNA and protein (MDA-7 expression in PBMC): stimulated

— patent publication US20060134801A1, “Methods and compositions involving MDA-7” (Board of Regents, The University of Texas System, priority 2003, published 2006)
